From patent publication US11332463B2, “Spiropiperidine allosteric modulators of nicotinic acetylcholine receptors” (Merck Sharp & Dohme Corp., priority 2018, dated 2022) come the findings set out here.

One assay deals with T1, human α7 nicotinic acetylcholine receptor (HEK cell line stably expressing human RIC-3 and human α7) (Homo sapiens, UniProt P36544).
T1 construct: host or cells: HEK cell line (PrecisION hnAChR α7/RIC-3)
T1 sequence (P36544 23-502): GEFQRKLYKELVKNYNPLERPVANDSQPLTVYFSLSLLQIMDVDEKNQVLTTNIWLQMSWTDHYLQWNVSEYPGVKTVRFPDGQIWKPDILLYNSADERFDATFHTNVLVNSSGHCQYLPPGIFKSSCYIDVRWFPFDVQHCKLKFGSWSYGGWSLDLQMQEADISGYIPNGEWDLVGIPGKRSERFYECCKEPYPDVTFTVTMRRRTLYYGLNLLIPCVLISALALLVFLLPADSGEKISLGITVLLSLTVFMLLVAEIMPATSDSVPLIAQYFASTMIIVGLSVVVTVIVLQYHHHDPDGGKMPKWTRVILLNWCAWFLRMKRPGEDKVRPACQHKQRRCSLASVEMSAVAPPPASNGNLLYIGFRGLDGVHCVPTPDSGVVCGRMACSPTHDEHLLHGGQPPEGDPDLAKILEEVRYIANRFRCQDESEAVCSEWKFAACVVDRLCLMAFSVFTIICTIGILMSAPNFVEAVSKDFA
The experiment in a line: Automated patch-clamp electrophysiology functional assay (Assay A), IonFlux HT, whole-cell population patch. It counts as cell-based. The conditions noted are these: HEK cells expressing human α7/RIC-3; test compound with or without 40 μM acetylcholine; holding potential −60 mV; room temperature; read-out: α7 nAChR Potency.
Consider `NS(=O)(=O)N1CCC2(CC1)C[C@H]2c1noc(-c2ccc(F)cc2OC(F)F)n1` [Example D24], for which the EC50 was 100 to 500 nM.
On the same count and under the same terms, the value for `Cc1cc(C)c(-c2nc(C3CC34CCN(S(N)(=O)=O)CC4)no2)cc1C` (stereo not shown) [Example D25] was 100 to 500 nM; that for `NS(=O)(=O)N1CCC2(CC1)C(c1noc(-c3ccccc3C3CC3)n1)C2(F)F` (stereo not shown) [Example D26] was under 100 nM; that for `Cc1cn(C2CC2)c2ccc(-c3nc([C@@H]4CC45CCN(S(N)(=O)=O)CC5)no3)cc12` [Example E1] was 100 to 500 nM.
Still for that read-out and setting: in the case of `Cc1ncccc1-c1nc([C@@H]2CC23CCN(S(N)(=O)=O)CC3)no1` [Example E2] it was 500 to 5000 nM.
The same measure, in the same setting: in the case of `NS(=O)(=O)N1CCC2(CC1)C[C@H]2c1noc(Cc2c(F)cccc2C(F)(F)F)n1` [Example E4] it was 5000 to 50000 nM; in that of `NS(=O)(=O)N1CCC2(CC1)C[C@H]2c1noc(Cc2cc(C(F)(F)F)ccc2F)n1` [Example E5], 500 to 5000 nM.
As to `Cc1cccc(C)c1Cc1nc([C@@H]2CC23CCN(S(N)(=O)=O)CC3)no1` [Example E6], the EC50 is 500 to 5000 nM.
`NS(=O)(=O)N1CCC2(CC1)C[C@H]2c1noc(Cc2cc(F)ccc2C(F)(F)F)n1` [Example E9]: the EC50 lay in the range of 500 to 5000 nM.
Take `NS(=O)(=O)N1CCC2(CC1)C[C@H]2c1noc(C2(c3cc(F)ccc3F)CCC2)n1` [Example E10]: the EC50 lay in the range of 500 to 5000 nM.
On the same count and under the same terms, in the case of `NS(=O)(=O)N1CCC2(CC1)C[C@H]2c1noc(Cc2ccc(F)cc2C(F)(F)F)n1` [Example E12] it was 500 to 5000 nM.
On the same count and under the same terms, in the case of `NS(=O)(=O)N1CCC2(CC1)C[C@H]2c1noc(C2(c3cccc(C(F)(F)F)c3)CC2)n1` [Example E14] it was 500 to 5000 nM; in that of `Cc1ccc(C)c(-c2nc([C@@H]3CC34CCN(S(N)(=O)=O)CC4)no2)n1` [Example E16], 500 to 5000 nM.
On to `NS(=O)(=O)N1CCC2(CC1)C[C@H]2c1noc(-c2cccc(C(F)(F)F)n2)n1` [Example E17], for which the EC50 was 500 to 5000 nM.
Same read-out and setting: in the case of `NS(=O)(=O)N1CCC2(CC1)C[C@H]2c1noc(-c2ccnc(OCC(F)(F)F)c2)n1` [Example E18] it was 500 to 5000 nM; in that of `Cc1ccc(C(F)(F)F)nc1-c1nc([C@@H]2CC23CCN(S(N)(=O)=O)CC3)no1` [Example E19], 100 to 500 nM; in that of `NS(=O)(=O)N1CCC2(CC1)C[C@H]2c1noc(C2CC3(CCC3)C2)n1` [Example E20], 500 to 5000 nM.
On the same count and under the same terms, in the case of `CCn1nc(C)cc1-c1nc([C@@H]2CC23CCN(S(N)(=O)=O)CC3)no1` [Example E21] it was 100 to 500 nM; in that of `NS(=O)(=O)N1CCC2(CC1)C[C@H]2c1noc(-c2cnn(CC(F)(F)F)c2)n1` [Example E22], 500 to 5000 nM; in that of `NS(=O)(=O)N1CCC2(CC1)C[C@H]2c1noc(-c2ocnc2C(F)(F)F)n1` [Example E23], 500 to 5000 nM.
Same read-out and setting: the value for `CCc1ncoc1-c1nc([C@@H]2CC23CCN(S(N)(=O)=O)CC3)no1` [Example E24] was 500 to 5000 nM; that for `NS(=O)(=O)N1CCC2(CC1)C[C@H]2c1noc(-c2ccn(CC(F)(F)F)n2)n1` [Example E25] was 500 to 5000 nM.
With `NS(=O)(=O)N1CCC2(CC1)C[C@H]2c1noc(-c2conc2C2CC2)n1` [Example E26], the EC50 lay in the range of 500 to 5000 nM.
On the same count and under the same terms, in the case of `Cc1onc(-c2nc([C@@H]3CC34CCN(S(N)(=O)=O)CC4)no2)c1C` [Example E27] it was 500 to 5000 nM; in that of `Cc1noc(C)c1Cc1nc([C@@H]2CC23CCN(S(N)(=O)=O)CC3)no1` [Example E28], 500 to 5000 nM.
On the same count and under the same terms, the value for `NS(=O)(=O)N1CCC2(CC1)C[C@H]2c1noc(-c2conc2C(F)(F)F)n1` [Example E29] was 500 to 5000 nM; that for `NS(=O)(=O)N1CCC2(CC1)C[C@H]2c1noc(-c2ccnn2C2CC2)n1` [Example E30] was 500 to 5000 nM; that for `NS(=O)(=O)N1CCC2(CC1)C[C@H]2c1noc(-c2cc(-n3ccnc3)ncc2C(F)(F)F)n1` [Example E31] was 500 to 5000 nM.
On the same count and under the same terms, the value for `Cn1ncc(C(F)(F)F)c1-c1nc([C@@H]2CC23CCN(S(N)(=O)=O)CC3)no1` [Example E32] was 100 to 500 nM.

Staying with this assay, now noted: automated patch-clamp electrophysiology functional assay (Assay A); read-out: α7 nAChR EC50.
For the compound `NS(=O)(=O)N1CCC2(CC1)C[C@H]2c1noc(-c2ccc(F)cc2OC(F)F)n1` [Example D24], the EC50 stood at 240 nM.
Turning to `Cc1cc(C)c(-c2nc(C3CC34CCN(S(N)(=O)=O)CC4)no2)cc1C` (stereo not shown) [Example D25], the EC50 is 130 nM.
Consider `NS(=O)(=O)N1CCC2(CC1)C(c1noc(-c3ccccc3C3CC3)n1)C2(F)F` (stereo not shown) [Example D26], for which the EC50 came out at 13 nM.
Same read-out and setting: the value for `Cc1cn(C2CC2)c2ccc(-c3nc([C@@H]4CC45CCN(S(N)(=O)=O)CC5)no3)cc12` [Example E1] was 310 nM; that for `Cc1ncccc1-c1nc([C@@H]2CC23CCN(S(N)(=O)=O)CC3)no1` [Example E2] was 1100 nM; that for `NS(=O)(=O)N1CCC2(CC1)C[C@H]2c1noc(Cc2c(F)cccc2C(F)(F)F)n1` [Example E4] was 7200 nM.
On the same count and under the same terms, the value for `Cc1cccc(C)c1Cc1nc([C@@H]2CC23CCN(S(N)(=O)=O)CC3)no1` [Example E6] was 930 nM; that for `NS(=O)(=O)N1CCC2(CC1)C[C@H]2c1noc(C2(c3cc(F)ccc3F)CCC2)n1` [Example E10] was 3400 nM.
In the case of `NS(=O)(=O)N1CCC2(CC1)C[C@H]2c1noc(Cc2ccc(F)cc2C(F)(F)F)n1` [Example E12], the EC50 amounted to 3700 nM.
Still for that read-out and setting: in the case of `NS(=O)(=O)N1CCC2(CC1)C[C@H]2c1noc(C2(c3cccc(C(F)(F)F)c3)CC2)n1` [Example E14] it was 2000 nM; in that of `Cc1ccc(C)c(-c2nc([C@@H]3CC34CCN(S(N)(=O)=O)CC4)no2)n1` [Example E16], 1300 nM; in that of `NS(=O)(=O)N1CCC2(CC1)C[C@H]2c1noc(-c2cccc(C(F)(F)F)n2)n1` [Example E17], 1400 nM.
On the same count and under the same terms, in the case of `NS(=O)(=O)N1CCC2(CC1)C[C@H]2c1noc(-c2ccnc(OCC(F)(F)F)c2)n1` [Example E18] it was 1100 nM; in that of `Cc1ccc(C(F)(F)F)nc1-c1nc([C@@H]2CC23CCN(S(N)(=O)=O)CC3)no1` [Example E19], 290 nM; in that of `NS(=O)(=O)N1CCC2(CC1)C[C@H]2c1noc(C2CC3(CCC3)C2)n1` [Example E20], 2700 nM.
`CCn1nc(C)cc1-c1nc([C@@H]2CC23CCN(S(N)(=O)=O)CC3)no1` [Example E21]: the EC50 came out at 400 nM.
Still for that read-out and setting: in the case of `NS(=O)(=O)N1CCC2(CC1)C[C@H]2c1noc(-c2cnn(CC(F)(F)F)c2)n1` [Example E22] it was 3000 nM; in that of `NS(=O)(=O)N1CCC2(CC1)C[C@H]2c1noc(-c2ocnc2C(F)(F)F)n1` [Example E23], 4500 nM; in that of `CCc1ncoc1-c1nc([C@@H]2CC23CCN(S(N)(=O)=O)CC3)no1` [Example E24], 3600 nM.
Still for that read-out and setting: the value for `NS(=O)(=O)N1CCC2(CC1)C[C@H]2c1noc(-c2ccn(CC(F)(F)F)n2)n1` [Example E25] was 2200 nM; that for `NS(=O)(=O)N1CCC2(CC1)C[C@H]2c1noc(-c2conc2C2CC2)n1` [Example E26] was 570 nM; that for `Cc1onc(-c2nc([C@@H]3CC34CCN(S(N)(=O)=O)CC4)no2)c1C` [Example E27] was 1300 nM.
Still for that read-out and setting: in the case of `NS(=O)(=O)N1CCC2(CC1)C[C@H]2c1noc(-c2conc2C(F)(F)F)n1` [Example E29] it was 1600 nM.
With `NS(=O)(=O)N1CCC2(CC1)C[C@H]2c1noc(-c2ccnn2C2CC2)n1` [Example E30], the EC50 is 780 nM.
Take `NS(=O)(=O)N1CCC2(CC1)C[C@H]2c1noc(-c2cc(-n3ccnc3)ncc2C(F)(F)F)n1` [Example E31]: the EC50 stood at 4300 nM.
On the same count and under the same terms, the value for `Cn1ncc(C(F)(F)F)c1-c1nc([C@@H]2CC23CCN(S(N)(=O)=O)CC3)no1` [Example E32] was 330 nM.
